Data as given in PubChem BioAssay (NCI).
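At the GI50, growth is halved. Definition used: TGI = concentration required for complete inhibition of growth.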

Assays:
Test in all cases: growth of human tumour cells (NCI), 384-well format
[1] = tested on: 786-0 renal
[2] = tested on: A498 renal
[3] = tested on: A549 NSCLC
[4] = tested on: ACHN renal
[5] = tested on: BT-549 breast
[6] = tested on: CAKI-1 renal
[7] = tested on: CCRF-CEM leukemia
[8] = tested on: COLO 205 colon
[9] = tested on: DU-145 prostate
[10] = tested on: EKVX NSCLC
[11] = tested on: HCC-2998 colon
[12] = tested on: HCT-116 colon
[13] = tested on: HCT-15 colon
[14] = tested on: HL-60(TB) leukemia
[15] = tested on: HOP-62 NSCLC
[16] = tested on: HOP-92 NSCLC
[17] = tested on: HS 578T breast
[18] = tested on: HT29 colon
[19] = tested on: IGROV1 ovarian
[20] = tested on: K-562 leukemia
[21] = tested on: KM12 colon
[22] = tested on: LOX IMVI melanoma
[23] = tested on: M14 melanoma
[24] = tested on: MALME-3M melanoma
[25] = tested on: MCF7 breast
[26] = tested on: MDA-MB-231 breast
[27] = tested on: MDA-MB-435 melanoma
[28] = tested on: MDA-MB-468 breast
[29] = tested on: MOLT-4 leukemia
[30] = tested on: NCI-H226 lung
[31] = tested on: NCI-H23 lung
[32] = tested on: NCI-H322M lung
[33] = tested on: NCI-H460 NSCLC
[34] = tested on: NCI-H522 lung
[35] = tested on: NCI/ADR-RES ovarian
[36] = tested on: OVCAR-3 ovarian
[37] = tested on: OVCAR-4 ovarian
[38] = tested on: OVCAR-5 ovarian
[39] = tested on: PC-3 prostate
[40] = tested on: RPMI-8226 leukemia
[41] = tested on: RXF 393 renal
[42] = tested on: SF-268 CNS
[43] = tested on: SF-295 CNS
[44] = tested on: SF-539 CNS
[45] = tested on: SK-MEL-2 melanoma
[46] = tested on: SK-MEL-28 melanoma
[47] = tested on: SK-MEL-5 melanoma
[48] = tested on: SK-OV-3 ovarian
[49] = tested on: SN12C renal
[50] = tested on: SNB-19 CNS
[51] = tested on: SNB-75 CNS
[52] = tested on: SR leukemia
[53] = tested on: SW-620 colon
[54] = tested on: T-47D breast
[55] = tested on: TK-10 renal
[56] = tested on: U251 glioblastoma
[57] = tested on: UACC-257 melanoma
[58] = tested on: UACC-62 melanoma
[59] = tested on: UO-31 renal

Cc1cc([N+](=O)[O-])ccc1NS(=O)(=O)c1cc(Cl)ccc1Cl
GI50 [1]: 7.49 µM
TGI [1]: 33.6 µM
GI50 [2]: 4.63 µM
TGI [2]: 22.6 µM
GI50 [3]: 4.62 µM
TGI [3]: 24 µM
GI50 [4]: 14.4 µM
TGI [4]: 67.9 µM
GI50 [5]: 3.08 µM
TGI [5]: 8.84 µM
GI50 [6]: 5.52 µM
TGI [6]: 39 µM
GI50 [7]: 5.19 µM
TGI [7]: 18.4 µM
GI50 [8]: 17.1 µM
TGI [8]: 78 µM
GI50 [9]: 10.1 µM
TGI [9]: > 100 µM
GI50 [10]: 3.64 µM
TGI [10]: 14.6 µM
GI50 [11]: 5.29 µM
TGI [11]: 24.5 µM
GI50 [12]: 4.45 µM
TGI [12]: 16 µM
GI50 [13]: 3.44 µM
TGI [13]: 14.9 µM
GI50 [14]: 2.74 µM
TGI [14]: 5.97 µM
GI50 [15]: 13.5 µM
TGI [15]: 35.5 µM
GI50 [16]: 3.63 µM
TGI [16]: 16.4 µM
GI50 [17]: 3.02 µM
TGI [17]: 10.6 µM
GI50 [18]: 4.53 µM
TGI [18]: > 100 µM
GI50 [19]: 18.9 µM
TGI [19]: > 100 µM
GI50 [20]: 7.36 µM
TGI [20]: 55.7 µM
GI50 [21]: 6.61 µM
TGI [21]: 43.9 µM
GI50 [22]: 3.74 µM
TGI [22]: 13.3 µM
GI50 [23]: 16.9 µM
TGI [23]: 68.3 µM
GI50 [24]: 5.38 µM
TGI [24]: 24.4 µM
GI50 [25]: 7.65 µM
TGI [25]: 25.2 µM
GI50 [26]: 5.07 µM
TGI [26]: 30.8 µM
GI50 [27]: 3.21 µM
TGI [27]: 26.6 µM
GI50 [28]: 2.16 µM
TGI [28]: 9.32 µM
GI50 [29]: 7.48 µM
TGI [29]: 20.2 µM
GI50 [30]: 6.27 µM
TGI [30]: 20.2 µM
GI50 [31]: 2.98 µM
TGI [31]: 13.1 µM
GI50 [32]: 3.85 µM
TGI [32]: 16.4 µM
GI50 [33]: 2.89 µM
TGI [33]: 11.6 µM
GI50 [34]: 2.87 µM
TGI [34]: 8.65 µM
GI50 [35]: 3.26 µM
TGI [35]: 15.9 µM
GI50 [36]: 3.56 µM
TGI [36]: 15.4 µM
GI50 [37]: 6.02 µM
TGI [37]: > 100 µM
GI50 [38]: 12.9 µM
TGI [38]: 44.1 µM
GI50 [39]: 3.59 µM
TGI [39]: 14.6 µM
GI50 [40]: 2.09 µM
TGI [40]: 4.48 µM
GI50 [41]: 4.56 µM
TGI [41]: 22.3 µM
GI50 [42]: 3.78 µM
TGI [42]: 27.5 µM
GI50 [43]: 3.99 µM
TGI [43]: 22.1 µM
GI50 [44]: 5.29 µM
TGI [44]: 20.1 µM
GI50 [45]: 33.1 µM
TGI [45]: 49.5 µM
GI50 [46]: 5.46 µM
TGI [46]: 32.4 µM
GI50 [47]: 2.45 µM
TGI [47]: 7.27 µM
GI50 [48]: 13.8 µM
TGI [48]: 49.8 µM
GI50 [49]: 5.83 µM
TGI [49]: 49.4 µM
GI50 [50]: 5.5 µM
TGI [50]: 75.6 µM
GI50 [51]: 9.67 µM
TGI [51]: 35.4 µM
GI50 [52]: 19.1 µM
TGI [52]: 33.3 µM
GI50 [53]: 5.93 µM
TGI [53]: 46 µM
GI50 [54]: 2.65 µM
TGI [54]: 6.31 µM
GI50 [55]: 11.4 µM
TGI [55]: > 100 µM
GI50 [56]: 2.91 µM
TGI [56]: 10.5 µM
GI50 [57]: 4.95 µM
TGI [57]: 19.2 µM
GI50 [58]: 13.3 µM
TGI [58]: 33.3 µM
GI50 [59]: 12.4 µM
TGI [59]: 43.9 µM
